Data: US8067424B2, “Selective inhibitors for cyclin-dependent kinases” (Emory University, priority 2007, dated 2011)
Like-named read-outs stand apart in the source and are kept apart here.

How the values were obtained:
Format in all cases: biochemical
PKBβ = molecular target: T1, PKBβ (Homo sapiens, UniProt P31751, S474D); assay: Kinase screen: ΔPH-PKBbeta (S474D) assay
T1 construct: ΔPH-PKBbeta (S474D) assay: ΔPH-PKBbeta-S474D (5-20 mU diluted)
Method: (§1) Generally, the same procedure was used for all assays. Since the total assay volume was 25.5 microliters, 0.5 microliters of inhibitors at 51× assay concentration were added to the plates before any other addition.
(§2) The basic procedure was to add 0.5 microliters inhibitor/control in DMSO to plate. Fifteen microliters of enzyme/substrate/buffer mix were added and incubated for 5 min. Ten microliters MgATP at the relevant concentration were added and incubated for 30 min. The assay was stopped by adding 5 microliters of 3% orthophosphoric acid. The assay was transferred to a p81 filter plate and read in a scintillation counter of 30 sec/well. Note that this assay procedure was not followed for MKK1, which instead involved a two-step assay, and PKC alpha, which required the addition of lipid vesicles.
ΔPH-PKBbeta (S474D) assay: ΔPH-PKBbeta-S474D (5-20 mU diluted in 50 mM Tris pH 7.5, 0.1 mM EGTA, 0.1% b-mercaptoethanol, 1 mg/ml BSA) was assayed against a modified Crosstide peptide ([…]) (SEQ ID NO: 4) in a final volume of 25.5 μl containing 50 mM Tris pH 7.5, 0.05% b-mercaptoethanol, 30 μM substrate peptide, 10 mM magnesium acetate and 0.05 mM [33P-g-ATP] (50-1000 cpm/pmole) and incubated for 30 min at room temperature. Assays were stopped by addition of 5 μl of 0.5 M (3%) orthophosphoric acid and then harvested onto P81 Unifilter plates with a wash buffer of 50 mM orthophosphoric acid.

PIM2 = PIM2 (Homo sapiens, UniProt Q9P1W9); assay: Kinase screen: PIM2 assay
Method: as §1, §2
PIM2 assay: 5-20 mU of PIM2 (diluted in 50 mM Tris (pH 7.5), 0.1 mM EGTA, 1 mg/ml BSA, 0.1%, b-Mercaptoethanol) was assayed against substrate peptide ([…]) (SEQ ID NO: 23) in a final volume of 25.5 μl containing 50 mM Tris (pH 7.5), 0.1 mM EGTA, 0.5 mM CaCl2, 0.3 μM calmodulin, 0.1%, b-Mercaptoethanol, 300 μM substrate peptide, 10 mM magnesium acetate and 0.005 mM [33P-g-ATP] (500-1000 cpm/pmole) and incubated for 30 mins at room temperature. Assays were stopped by addition of 5 μl of 0.5M (3%) orthophosphoric acid. Assays were harvested onto P81 Unifilter plates using a wash buffer of 50 mM orthophosphoric acid.

MELK = MELK (Homo sapiens, UniProt Q14680); assay: Kinase screen: MELK assay
Method: as §1, §2
MELK assay: MELK (5-20 mU diluted in 50 mM Tris pH 7.5, 0.1 mM EGTA, 0.1% b-mercaptoethanol, 1 mg/ml BSA) was assayed against a substrate peptide ([…]) (SEQ ID NO: 33) in a final volume of 25.5 μl containing 50 mM Tris pH 7.5, 0.05% b-mercaptoethanol, 200 μM substrate peptide, 10 mM magnesium acetate and 0.05 mM [33P-g-ATP] (50-1000 cpm/pmole) and incubated for 30 min at room temperature. Assays were stopped by addition of 5 μl of 0.5 M (3%) orthophosphoric acid and then harvested onto P81 Unifilter plates with a wash buffer of 50 mM orthophosphoric acid.

DYRK3 = molecular target: T2, DYRK3 (Homo sapiens, UniProt O43781); assay: Kinase screen: DYRK3 assay
T2 sequence (O43781 1-588): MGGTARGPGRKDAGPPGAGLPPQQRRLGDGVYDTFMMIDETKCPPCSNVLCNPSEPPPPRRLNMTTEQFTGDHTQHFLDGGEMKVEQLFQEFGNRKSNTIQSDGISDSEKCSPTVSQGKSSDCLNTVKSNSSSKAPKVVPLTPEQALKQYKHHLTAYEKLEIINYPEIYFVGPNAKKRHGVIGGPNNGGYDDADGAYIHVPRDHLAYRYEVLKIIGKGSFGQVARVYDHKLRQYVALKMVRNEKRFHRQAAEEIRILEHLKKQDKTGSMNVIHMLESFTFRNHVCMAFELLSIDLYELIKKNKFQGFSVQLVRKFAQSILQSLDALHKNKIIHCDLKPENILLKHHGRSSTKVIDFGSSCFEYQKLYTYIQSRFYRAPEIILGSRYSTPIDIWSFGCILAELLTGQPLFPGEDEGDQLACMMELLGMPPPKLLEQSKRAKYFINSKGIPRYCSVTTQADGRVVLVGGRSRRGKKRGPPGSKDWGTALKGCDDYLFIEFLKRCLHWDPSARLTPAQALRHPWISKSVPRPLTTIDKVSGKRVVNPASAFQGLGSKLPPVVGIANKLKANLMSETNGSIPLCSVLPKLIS
Method: as §1, §2
DYRK3 assay: DYRK3 (5-20 mU of diluted in 50 mM Tris pH7.5, 0.1 mM EGTA) was assayed against Woodtide ([…]) (SEQ ID NO: 29) in a final volume of 25.5 μl containing 50 mM Tris pH 7.5, 0.1 mM EGTA, 350 μM substrate peptide, 10 mM Magnesium acetate and 0.005 mM [33P-g-ATP] (50-1000 cpm/pmole) and incubated for 30 min at room temperature. Assays were stopped by addition of 5 μl of 0.5 M (3%) orthophosphoric acid and then harvested onto P81 Unifilter plates with a wash buffer of 50 mM orthophosphoric acid.

[1] = 0.5 h, 10 micromolar compound, read-out: mean activity remaining (as a percentage of the original activity), PKBb
[2] = 10 micromolar compound, read-out: mean activity remaining (as a percentage of the original activity), PIM2
[3] = 10 micromolar compound, read-out: mean activity remaining (as a percentage of the original activity), MELK
[4] = 10 micromolar compound, read-out: mean activity remaining (as a percentage of the original activity), DYRK 3

Sequence of MELK (Q14680 whole entry, species assumed): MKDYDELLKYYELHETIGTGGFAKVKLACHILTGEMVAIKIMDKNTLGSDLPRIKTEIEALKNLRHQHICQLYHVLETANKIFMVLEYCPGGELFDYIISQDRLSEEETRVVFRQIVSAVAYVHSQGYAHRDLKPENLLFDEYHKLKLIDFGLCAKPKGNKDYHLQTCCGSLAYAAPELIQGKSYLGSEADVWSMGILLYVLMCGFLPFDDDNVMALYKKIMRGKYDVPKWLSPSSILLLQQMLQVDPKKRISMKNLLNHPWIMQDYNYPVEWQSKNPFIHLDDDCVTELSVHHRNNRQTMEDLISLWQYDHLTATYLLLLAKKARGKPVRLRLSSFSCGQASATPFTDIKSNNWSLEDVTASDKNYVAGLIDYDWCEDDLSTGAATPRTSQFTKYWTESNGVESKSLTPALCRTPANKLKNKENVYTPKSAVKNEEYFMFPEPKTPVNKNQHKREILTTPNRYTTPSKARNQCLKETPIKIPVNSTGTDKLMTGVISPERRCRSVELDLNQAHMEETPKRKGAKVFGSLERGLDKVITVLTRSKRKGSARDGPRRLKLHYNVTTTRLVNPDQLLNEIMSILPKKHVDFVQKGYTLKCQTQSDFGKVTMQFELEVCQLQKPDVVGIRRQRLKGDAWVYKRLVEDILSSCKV
Sequence of PIM2 (Q9P1W9 whole entry, species assumed): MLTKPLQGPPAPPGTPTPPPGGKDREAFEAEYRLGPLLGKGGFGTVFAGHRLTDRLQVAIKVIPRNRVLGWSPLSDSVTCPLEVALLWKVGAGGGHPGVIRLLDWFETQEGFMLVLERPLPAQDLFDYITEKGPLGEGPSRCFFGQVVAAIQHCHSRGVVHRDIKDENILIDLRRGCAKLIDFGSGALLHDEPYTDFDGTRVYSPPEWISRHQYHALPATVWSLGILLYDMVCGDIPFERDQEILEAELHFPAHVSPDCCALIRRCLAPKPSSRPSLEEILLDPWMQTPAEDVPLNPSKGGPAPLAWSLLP
T1 sequence (P31751 120-481 S474D limits assumed, species assumed): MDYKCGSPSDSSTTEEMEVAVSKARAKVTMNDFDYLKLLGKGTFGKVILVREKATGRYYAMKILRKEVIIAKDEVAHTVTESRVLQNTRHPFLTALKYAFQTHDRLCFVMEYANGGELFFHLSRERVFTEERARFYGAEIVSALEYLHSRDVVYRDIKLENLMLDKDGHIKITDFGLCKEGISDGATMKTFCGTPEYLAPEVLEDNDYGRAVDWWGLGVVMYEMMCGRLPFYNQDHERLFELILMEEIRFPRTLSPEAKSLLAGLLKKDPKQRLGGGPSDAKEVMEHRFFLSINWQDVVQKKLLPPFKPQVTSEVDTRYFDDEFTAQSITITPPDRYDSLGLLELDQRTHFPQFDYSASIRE

SMILES | remaining activity at 10 µM (PKBβ; [1]) [%] | remaining activity at 10 µM (PIM2; [2]) [%] | remaining activity at 10 µM (MELK; [3]) [%] | remaining activity at 10 µM (DYRK3; [4]) [%] | other results
CC(C)c1cnn2c(NCc3ccccc3)cc(NCCCCCCCN)nc12 [BS-181] |  |  |  |  | remaining activity at 10 µM (PKBβ; PKBβ, 10 μM, read-out: Mean Remaining Enzyme Activity (%)): 81%; remaining activity at 10 µM (PIM2; PIM2, 10 μM, read-out: Mean Remaining Enzyme Activity (%)): 102%; remaining activity at 10 µM (MELK; MELK, 10 μM, read-out: Mean Remaining Enzyme Activity (%)): 63%; remaining activity at 10 µM (DYRK3; DYRK3, 10 μM, read-out: Mean Remaining Enzyme Activity (%)): 87%
C=C[C@H](CO)Nc1cc(NCc2ccccc2)n2ncc(C(C)C)c2n1 [ICEC0065] | 109 | 93 | 90 | 86 | 
CC[C@H](CO)Nc1cc(NCc2ccccc2)n2ncc(C(C)C)c2n1 [ICEC0067] | 102 | 92 | 75 | 90 | 
CC(C)c1cnn2c(NCc3ccccc3)cc(N[C@@H](CO)[C@H](O)CO)nc12 [ICEC0318, (3S)-3-(7-(Benzylamino)-3-isopropylpyrazolo[1,5-a]pyrimidin-5-ylamino)butane-1,2,4-triol] | 105 | 94 | 88 | 88 | 
CC(C)c1cnn2c(NCc3ccccc3F)cc(NCCCCCN)nc12 [ICEC-0232] |  |  |  |  | mean activity remaining (as a percentage of the original activity), PKBb (PKBβ; 10 micromolar compound): 76%; mean activity remaining (as a percentage of the original activity), PIM2 (PIM2; 10 micromolar compound): 102%; mean activity remaining (as a percentage of the original activity), MELK (MELK; 10 micromolar compound): 62%; mean activity remaining (as a percentage of the original activity), DYRK 3 (DYRK3; 10 micromolar compound): 60%
